Experimental data from the NIST ThermoML archive (doi:10.1016/j.jct.2006.05.007).
± gives the expanded uncertainty stated by the source.

Settings: Liquid

Q: Which “vapor or sublimation pressure” value (298.25 K, Twin ebulliometer) does the source give for CCOC(C)(C)C [2-ethoxy-2-methylpropane] here?
A: 16.83 ± 0.042 kPa

Q: And the “vapor or sublimation pressure” value (303.13 K, Twin ebulliometer)?
A: 20.88 ± 0.042 kPa

Q: And the “vapor or sublimation pressure” value (307.44 K, Twin ebulliometer)?
A: 25.07 ± 0.043 kPa

Q: What about the “vapor or sublimation pressure” value (312.55 K, Twin ebulliometer) of the same molecule?
A: 30.91 ± 0.044 kPa

Q: And the “vapor or sublimation pressure” value (317.29 K, Twin ebulliometer)?
A: 37.26 ± 0.045 kPa

Q: What about the “vapor or sublimation pressure” value (322.74 K, Twin ebulliometer) of the same molecule?
A: 45.83 ± 0.046 kPa

Q: What about the “vapor or sublimation pressure” value (328.3 K, Twin ebulliometer) of the same molecule?
A: 56.12 ± 0.048 kPa

Q: And the “vapor or sublimation pressure” value (333.56 K, Twin ebulliometer)?
A: 67.49 ± 0.05 kPa

Q: What about the “vapor or sublimation pressure” value (339.17 K, Twin ebulliometer) of the same molecule?
A: 81.57 ± 0.053 kPa

Q: And the “vapor or sublimation pressure” value (343.23 K, Twin ebulliometer)?
A: 93.18 ± 0.057 kPa

Q: And the “vapor or sublimation pressure” value (343.89 K, Twin ebulliometer)?
A: 95.31 ± 0.057 kPa

Q: And the “vapor or sublimation pressure” value (344.57 K, Twin ebulliometer)?
A: 97.44 ± 0.057 kPa

Q: What about the “vapor or sublimation pressure” value (345.25 K, Twin ebulliometer) of the same molecule?
A: 99.6 ± 0.057 kPa

Q: And the “vapor or sublimation pressure” value (345.92 K, Twin ebulliometer)?
A: 101.69 ± 0.057 kPa

Q: With CC(C)OC(C)C [diisopropyl ether] as the molecule, how does the “vapor or sublimation pressure” value (308.58 K, Twin ebulliometer) read?
A: 30.91 ± 0.044 kPa

Q: What about the “vapor or sublimation pressure” value (313.25 K, Twin ebulliometer) of the same molecule?
A: 37.26 ± 0.045 kPa

Q: What about the “vapor or sublimation pressure” value (318.65 K, Twin ebulliometer) of the same molecule?
A: 45.83 ± 0.046 kPa

Q: What about the “vapor or sublimation pressure” value (324.17 K, Twin ebulliometer) of the same molecule?
A: 56.12 ± 0.048 kPa

Q: And the “vapor or sublimation pressure” value (329.4 K, Twin ebulliometer)?
A: 67.49 ± 0.05 kPa

Q: What about the “vapor or sublimation pressure” value (334.98 K, Twin ebulliometer) of the same molecule?
A: 81.57 ± 0.053 kPa

Q: And the “vapor or sublimation pressure” value (339.03 K, Twin ebulliometer)?
A: 93.18 ± 0.055 kPa

Q: And the “vapor or sublimation pressure” value (339.73 K, Twin ebulliometer)?
A: 95.31 ± 0.056 kPa

Q: And the “vapor or sublimation pressure” value (340.41 K, Twin ebulliometer)?
A: 97.44 ± 0.056 kPa

Q: For CC(C)COC(C)(C)C [isobutyl tert-butyl ether], which “vapor or sublimation pressure” value (310.61 K, Ebulliometric method (Recirculating still)) is on record?
A: 6.234 ± 0.041 kPa

Q: What about the “vapor or sublimation pressure” value (317.06 K, Ebulliometric method (Recirculating still)) of the same molecule?
A: 8.426 ± 0.041 kPa

Q: What about the “vapor or sublimation pressure” value (322.6 K, Ebulliometric method (Recirculating still)) of the same molecule?
A: 10.8 ± 0.041 kPa

Q: And the “vapor or sublimation pressure” value (327.65 K, Ebulliometric method (Recirculating still))?
A: 13.43 ± 0.041 kPa

Q: What about the “vapor or sublimation pressure” value (333.13 K, Ebulliometric method (Recirculating still)) of the same molecule?
A: 16.83 ± 0.042 kPa

Q: What about the “vapor or sublimation pressure” value (338.55 K, Ebulliometric method (Recirculating still)) of the same molecule?
A: 20.88 ± 0.042 kPa

Q: What about the “vapor or sublimation pressure” value (343.33 K, Ebulliometric method (Recirculating still)) of the same molecule?
A: 25.07 ± 0.043 kPa

Q: What about the “vapor or sublimation pressure” value (349 K, Ebulliometric method (Recirculating still)) of the same molecule?
A: 30.91 ± 0.043 kPa

Q: What about the “vapor or sublimation pressure” value (354.26 K, Ebulliometric method (Recirculating still)) of the same molecule?
A: 37.26 ± 0.044 kPa

Q: What about the “vapor or sublimation pressure” value (360.31 K, Ebulliometric method (Recirculating still)) of the same molecule?
A: 45.83 ± 0.045 kPa

Q: And the “vapor or sublimation pressure” value (366.48 K, Ebulliometric method (Recirculating still))?
A: 56.12 ± 0.047 kPa

Q: And the “vapor or sublimation pressure” value (372.35 K, Ebulliometric method (Recirculating still))?
A: 67.49 ± 0.049 kPa

Q: And the “vapor or sublimation pressure” value (378.59 K, Ebulliometric method (Recirculating still))?
A: 81.57 ± 0.051 kPa

Q: And the “vapor or sublimation pressure” value (383.13 K, Ebulliometric method (Recirculating still))?
A: 93.18 ± 0.054 kPa

Q: What about the “vapor or sublimation pressure” value (383.92 K, Ebulliometric method (Recirculating still)) of the same molecule?
A: 95.31 ± 0.054 kPa

Q: What about the “vapor or sublimation pressure” value (384.69 K, Ebulliometric method (Recirculating still)) of the same molecule?
A: 97.44 ± 0.055 kPa

Q: And the “vapor or sublimation pressure” value (385.45 K, Ebulliometric method (Recirculating still))?
A: 99.6 ± 0.055 kPa
